The test system of the data set is CCRIS mutagenicity, Ames/micronucleus/aberration tests. The data set is described as follows: CCRIS mutagenicity studies.
Setting [1] is: Test System: AMES SALMONELLA TYPHIMURIUM, Strain/Indicator: TA100, Metabolic Activation: NONE, Method: PREINCUBATION
Setting [2] is: Test System: AMES SALMONELLA TYPHIMURIUM, Strain/Indicator: TA100, Metabolic Activation: NONE, Method: STANDARD PLATE.
Setting [3] is: Test System: AMES SALMONELLA TYPHIMURIUM, Strain/Indicator: TA1537, Metabolic Activation: NONE, Method: PREINCUBATION
Where [4] appears, read: Test System: AMES SALMONELLA TYPHIMURIUM, Strain/Indicator: TA98, Metabolic Activation: NONE, Method: STANDARD PLATE.

Activity calls are given as the source filed them. The rule behind the calls is not given here.

Consider `CC(O)CN(C)N=O` (stereo not given), for which the mutagenic call is “active; positive” (Test System: AMES SALMONELLA TYPHIMURIUM, Strain/Indicator: TA100, Metabolic Activation: HAMSTER, LIVER, S-9, 3-METHYLCHOLANTHRENE, Method: PREINCUBATION); “active; positive” (Test System: AMES SALMONELLA TYPHIMURIUM, Strain/Indicator: TA100, Metabolic Activation: HAMSTER, LIVER, S-9, PHENOBARBITAL, Method: PREINCUBATION); “active; positive” (Test System: AMES SALMONELLA TYPHIMURIUM, Strain/Indicator: TA100, Metabolic Activation: HAMSTER, LIVER, S-9, Method: PREINCUBATION); “active; positive” (Test System: AMES SALMONELLA TYPHIMURIUM, Strain/Indicator: TA100, Metabolic Activation: HUMAN, LIVER, S-9, Method: PREINCUBATION); “active; positive” (Test System: AMES SALMONELLA TYPHIMURIUM, Strain/Indicator: TA100, Metabolic Activation: MONKEY, LIVER, S-9, Method: PREINCUBATION); “active; positive” (Test System: AMES SALMONELLA TYPHIMURIUM, Strain/Indicator: TA100, Metabolic Activation: MOUSE, LIVER, S-9, 3-METHYLCHOLANTHRENE, Method: PREINCUBATION). The mutagenic call (Test System: AMES SALMONELLA TYPHIMURIUM, Strain/Indicator: TA100, Metabolic Activation: MOUSE, LIVER, S-9, PHENOBARBITAL, Method: PREINCUBATION) was “active; positive”; the mutagenic call (Test System: AMES SALMONELLA TYPHIMURIUM, Strain/Indicator: TA100, Metabolic Activation: MOUSE, LIVER, S-9, Method: PREINCUBATION) is “active; positive”; the mutagenic call under setting [1] was “inactive; negative”; the mutagenic call (Test System: AMES SALMONELLA TYPHIMURIUM, Strain/Indicator: TA100, Metabolic Activation: RABBIT, LIVER, S-9, Method: PREINCUBATION) was “active; positive”; the mutagenic call (Test System: AMES SALMONELLA TYPHIMURIUM, Strain/Indicator: TA100, Metabolic Activation: RAT, LIVER, CYTOSOL, PCB, Method: PREINCUBATION) is “inactive; negative”; the mutagenic call (Test System: AMES SALMONELLA TYPHIMURIUM, Strain/Indicator: TA100, Metabolic Activation: RAT, LIVER, MICROSOMES AND CYTOSOL, PCB, Method: PREINCUBATION) was “active; positive”. Also, the mutagenic call is, setting by setting: (Test System: AMES SALMONELLA TYPHIMURIUM, Strain/Indicator: TA100, Metabolic Activation: RAT, LIVER, MICROSOMES AND G6PDH, PCB, Method: PREINCUBATION) “active; positive”; (Test System: AMES SALMONELLA TYPHIMURIUM, Strain/Indicator: TA100, Metabolic Activation: RAT, LIVER, MICROSOMES, PCB, Method: PREINCUBATION) “active; positive”; (Test System: AMES SALMONELLA TYPHIMURIUM, Strain/Indicator: TA100, Metabolic Activation: RAT, LIVER, S-9 (HEATED), PCB, Method: PREINCUBATION) “inactive; negative”; (Test System: AMES SALMONELLA TYPHIMURIUM, Strain/Indicator: TA100, Metabolic Activation: RAT, LIVER, S-9, 3-METHYLCHOLANTHRENE, Method: PREINCUBATION) “active; positive”; (Test System: AMES SALMONELLA TYPHIMURIUM, Strain/Indicator: TA100, Metabolic Activation: RAT, LIVER, S-9, PCB, Method: PREINCUBATION) “active; positive”; (Test System: AMES SALMONELLA TYPHIMURIUM, Strain/Indicator: TA100, Metabolic Activation: RAT, LIVER, S-9, PHENOBARBITAL, Method: PREINCUBATION) “active; positive”. For the same compound, the mutagenic call was “active; positive” (Test System: AMES SALMONELLA TYPHIMURIUM, Strain/Indicator: TA100, Metabolic Activation: RAT, LIVER, S-9, Method: PREINCUBATION); “inactive; negative” (Test System: AMES SALMONELLA TYPHIMURIUM, Strain/Indicator: TA100, Metabolic Activation: RAT, LIVER, S-9 WITHOUT NADP+, PCB, Method: PREINCUBATION); “inactive; negative” (Test System: AMES SALMONELLA TYPHIMURIUM, Strain/Indicator: TA100, Metabolic Activation: TOBACCO CELLS, Method: PREINCUBATION); “active; positive” (Test System: AMES SALMONELLA TYPHIMURIUM, Strain/Indicator: TA100, Method: PREINCUBATION); “active; positive” (Test System: CHINESE HAMSTER V-79, Strain/Indicator: V-79/OUABAIN, Metabolic Activation: HAMSTER, HEPATOCYTES, Method: CELL-MEDIATED).
Consider `O=C(OC[C@@H]1CO1)c1ccc([N+](=O)[O-])cc1`, for which the mutagenic call under setting [2] was “active; positive”.
On to `CC1(C)C[C@@H]2[C@@]3(C(=O)O)C[C@@]3(C=O)C(C=O)=C[C@]2(O)C1`, for which the mutagenic call (Test System: CHINESE HAMSTER V-79, Strain/Indicator: V-79/6-THIOGUANINE (HGPRT), Metabolic Activation: NONE) is “inactive; negative”.
Regarding `Nc1nccc2[nH]c3ccccc3c12`, the mutagenic call under setting [3] was “active; positive”.
On to `Cc1snc2ccccc12`, for which the mutagenic call reads like this: under setting [4], “inactive; negative”; (Test System: AMES SALMONELLA TYPHIMURIUM, Strain/Indicator: TA98, Metabolic Activation: S-9, Method: STANDARD PLATE) “inactive; negative”; under setting [2], “inactive; negative”; (Test System: AMES SALMONELLA TYPHIMURIUM, Strain/Indicator: TA100, Metabolic Activation: S-9, Method: STANDARD PLATE) “active; positive”; (Test System: AMES SALMONELLA TYPHIMURIUM, Strain/Indicator: TA1535, Metabolic Activation: NONE, Method: STANDARD PLATE) “inactive; negative”; (Test System: AMES SALMONELLA TYPHIMURIUM, Strain/Indicator: TA1535, Metabolic Activation: S-9, Method: STANDARD PLATE) “inactive; negative”. Moreover, the mutagenic call was “inactive; negative” (Test System: AMES SALMONELLA TYPHIMURIUM, Strain/Indicator: TA1537, Metabolic Activation: NONE, Method: STANDARD PLATE) and “inactive; negative” (Test System: AMES SALMONELLA TYPHIMURIUM, Strain/Indicator: TA1537, Metabolic Activation: S-9, Method: STANDARD PLATE).
In the case of `N#Cc1ccccc1C#N`, the mutagenic call reads like this: (Test System: AMES SALMONELLA TYPHIMURIUM, Strain/Indicator: TA98, Metabolic Activation: NONE, Method: PREINCUBATION) “inactive; negative”; (Test System: AMES SALMONELLA TYPHIMURIUM, Strain/Indicator: TA98, Metabolic Activation: RAT LIVER S-9, PHENOBARBITAL AND BETA-NAPHTHOFLAVONE, Method: PREINCUBATION) “inactive; negative”; under setting [1], “inactive; negative”; (Test System: AMES SALMONELLA TYPHIMURIUM, Strain/Indicator: TA100, Metabolic Activation: RAT LIVER S-9, PHENOBARBITAL AND BETA-NAPHTHOFLAVONE, Method: PREINCUBATION) “inactive; negative”; (Test System: AMES SALMONELLA TYPHIMURIUM, Strain/Indicator: TA1535, Metabolic Activation: NONE, Method: PREINCUBATION) “inactive; negative”; (Test System: AMES SALMONELLA TYPHIMURIUM, Strain/Indicator: TA1535, Metabolic Activation: RAT LIVER S-9, PHENOBARBITAL AND BETA-NAPHTHOFLAVONE, Method: PREINCUBATION) “inactive; negative”. In addition, the mutagenic call reads like this: under setting [3], “inactive; negative”; (Test System: AMES SALMONELLA TYPHIMURIUM, Strain/Indicator: TA1537, Metabolic Activation: RAT LIVER S-9, PHENOBARBITAL AND BETA-NAPHTHOFLAVONE, Method: PREINCUBATION) “inactive; negative”; (Test System: AMES SALMONELLA TYPHIMURIUM, Strain/Indicator: TA1538, Metabolic Activation: NONE, Method: PREINCUBATION) “inactive; negative”; (Test System: AMES SALMONELLA TYPHIMURIUM, Strain/Indicator: TA1538, Metabolic Activation: RAT LIVER S-9, PHENOBARBITAL AND BETA-NAPHTHOFLAVONE, Method: PREINCUBATION) “inactive; negative”; (Test System: E.COLI, Strain/Indicator: WP2UVRA, Metabolic Activation: NONE, Method: PREINCUBATION) “inactive; negative”; (Test System: E.COLI, Strain/Indicator: WP2UVRA, Metabolic Activation: RAT LIVER S-9, PHENOBARBITAL AND BETA-NAPHTHOFLAVONE, Method: PREINCUBATION) “inactive; negative”.
As to `O=[N+]([O-])c1ccc(Sc2ccccc2)cc1`, the mutagenic call is “active; positive” (Test System: AMES SALMONELLA TYPHIMURIUM, Strain/Indicator: TA98(1,8-DNP6), Metabolic Activation: NONE, Method: STANDARD PLATE); “inactive; negative” (Test System: AMES SALMONELLA TYPHIMURIUM, Strain/Indicator: TA98(NR), Metabolic Activation: NONE, Method: STANDARD PLATE); “active; positive” under setting [4]; “active; positive” (Test System: AMES SALMONELLA TYPHIMURIUM, Strain/Indicator: TA98, Metabolic Activation: RAT, LIVER, S-9, AROCLOR 1254, Method: STANDARD PLATE).

These data come from PubChem BioAssay AID1259407 (Chemical Carcinogenesis Research Information System (CCRIS), 2018).
